The target of series [1] is T1, Tyrosine-protein kinase JAK2 (Homo sapiens, UniProt O60674). Nature of the series: Inhibition of human JAK2 using fluorescence labeled peptide as substrate and using ATP at its Km level by microfluidic based mobility shift assay.
A further series is described as follows: physchem. Conditions: octanol/water phosphate buffer, pH 7.4.
The target in series [2] is T2, Tyrosine-protein kinase JAK3 (Homo sapiens, UniProt P52333).
T2 sequence (P52333 whole entry): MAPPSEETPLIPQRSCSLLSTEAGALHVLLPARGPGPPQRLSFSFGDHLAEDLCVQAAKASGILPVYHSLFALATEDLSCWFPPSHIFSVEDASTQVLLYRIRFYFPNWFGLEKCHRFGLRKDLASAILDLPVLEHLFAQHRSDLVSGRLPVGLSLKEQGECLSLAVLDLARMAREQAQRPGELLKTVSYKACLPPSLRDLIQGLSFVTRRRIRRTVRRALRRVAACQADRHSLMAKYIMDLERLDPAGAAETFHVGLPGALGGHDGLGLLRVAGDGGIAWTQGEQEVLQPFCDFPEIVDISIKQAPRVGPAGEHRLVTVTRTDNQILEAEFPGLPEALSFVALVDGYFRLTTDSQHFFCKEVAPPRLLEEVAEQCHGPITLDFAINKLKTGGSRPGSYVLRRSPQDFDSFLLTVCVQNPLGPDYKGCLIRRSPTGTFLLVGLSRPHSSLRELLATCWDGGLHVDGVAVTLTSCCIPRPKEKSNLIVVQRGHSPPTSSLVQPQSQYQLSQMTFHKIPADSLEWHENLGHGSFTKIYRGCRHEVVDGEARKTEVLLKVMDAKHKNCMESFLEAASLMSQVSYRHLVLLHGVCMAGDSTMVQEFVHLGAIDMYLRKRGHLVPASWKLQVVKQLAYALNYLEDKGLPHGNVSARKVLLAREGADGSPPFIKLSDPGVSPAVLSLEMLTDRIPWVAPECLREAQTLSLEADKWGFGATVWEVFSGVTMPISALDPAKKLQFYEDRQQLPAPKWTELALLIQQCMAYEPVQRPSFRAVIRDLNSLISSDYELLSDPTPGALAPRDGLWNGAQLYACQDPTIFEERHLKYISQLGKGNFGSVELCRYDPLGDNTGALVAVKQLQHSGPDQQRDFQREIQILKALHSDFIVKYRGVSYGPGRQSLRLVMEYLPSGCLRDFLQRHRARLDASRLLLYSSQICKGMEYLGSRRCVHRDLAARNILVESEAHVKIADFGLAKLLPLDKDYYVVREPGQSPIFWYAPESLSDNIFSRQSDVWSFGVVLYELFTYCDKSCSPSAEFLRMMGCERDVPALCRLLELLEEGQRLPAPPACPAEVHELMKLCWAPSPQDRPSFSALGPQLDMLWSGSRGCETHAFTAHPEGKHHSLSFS
Nature of the series: Inhibition of human JAK3 using fluorescence labeled peptide as substrate and using ATP at its Km level by microfluidic based mobility shift assay.

The target of series [3] is T3, Tyrosine-protein kinase JAK1 (Homo sapiens, UniProt P23458). Nature of the series: Inhibition of human JAK1 using fluorescence labeled peptide as substrate and using ATP at its Km level by microfluidic based mobility shift assay.
In series [4] the target is T4, Non-receptor tyrosine-protein kinase TYK2 (Homo sapiens, UniProt P29597). Nature of the series: Inhibition of human TYK2 using fluorescence labeled peptide as substrate and using ATP at its Km level by microfluidic based mobility shift assay.
The target in series [5] is T4, Non-receptor tyrosine-protein kinase TYK2.
Series [6] has as its target T1, Tyrosine-protein kinase JAK2.
The target in series [7] is T3, Tyrosine-protein kinase JAK1.
Series [8] addresses T2, Tyrosine-protein kinase JAK3.
Series [9] can be described thus: Passive apparent permeability from apical to basolateral side in RRCK cells. It is filed as ADME, cell-based, Canis lupus familiaris, MDCKII-LE. The note with it: dog, MDCK.
Series [10] concerns the target T1, Tyrosine-protein kinase JAK2. This is another data set of the same source.
The target in series [11] is T5, JAK1/TYK2 (Homo sapiens, UniProt P23458+P29597). Kind of series: Inhibition of JAK1/TYK2 signaling pathway in human lymphocytes of whole blood assessed as reduction in IFN-alpha induced STAT3 phosphorylation preincubated for 45 mins followed by IFN-alpha addition and measured measured after 15 mins by FACS assay. Type of series: cell-based.
In series [12] the target is T5, JAK1/TYK2.
For series [13], the target named is T1, Tyrosine-protein kinase JAK2. This is another data set of the same source.

T1 sequence (O60674 whole entry): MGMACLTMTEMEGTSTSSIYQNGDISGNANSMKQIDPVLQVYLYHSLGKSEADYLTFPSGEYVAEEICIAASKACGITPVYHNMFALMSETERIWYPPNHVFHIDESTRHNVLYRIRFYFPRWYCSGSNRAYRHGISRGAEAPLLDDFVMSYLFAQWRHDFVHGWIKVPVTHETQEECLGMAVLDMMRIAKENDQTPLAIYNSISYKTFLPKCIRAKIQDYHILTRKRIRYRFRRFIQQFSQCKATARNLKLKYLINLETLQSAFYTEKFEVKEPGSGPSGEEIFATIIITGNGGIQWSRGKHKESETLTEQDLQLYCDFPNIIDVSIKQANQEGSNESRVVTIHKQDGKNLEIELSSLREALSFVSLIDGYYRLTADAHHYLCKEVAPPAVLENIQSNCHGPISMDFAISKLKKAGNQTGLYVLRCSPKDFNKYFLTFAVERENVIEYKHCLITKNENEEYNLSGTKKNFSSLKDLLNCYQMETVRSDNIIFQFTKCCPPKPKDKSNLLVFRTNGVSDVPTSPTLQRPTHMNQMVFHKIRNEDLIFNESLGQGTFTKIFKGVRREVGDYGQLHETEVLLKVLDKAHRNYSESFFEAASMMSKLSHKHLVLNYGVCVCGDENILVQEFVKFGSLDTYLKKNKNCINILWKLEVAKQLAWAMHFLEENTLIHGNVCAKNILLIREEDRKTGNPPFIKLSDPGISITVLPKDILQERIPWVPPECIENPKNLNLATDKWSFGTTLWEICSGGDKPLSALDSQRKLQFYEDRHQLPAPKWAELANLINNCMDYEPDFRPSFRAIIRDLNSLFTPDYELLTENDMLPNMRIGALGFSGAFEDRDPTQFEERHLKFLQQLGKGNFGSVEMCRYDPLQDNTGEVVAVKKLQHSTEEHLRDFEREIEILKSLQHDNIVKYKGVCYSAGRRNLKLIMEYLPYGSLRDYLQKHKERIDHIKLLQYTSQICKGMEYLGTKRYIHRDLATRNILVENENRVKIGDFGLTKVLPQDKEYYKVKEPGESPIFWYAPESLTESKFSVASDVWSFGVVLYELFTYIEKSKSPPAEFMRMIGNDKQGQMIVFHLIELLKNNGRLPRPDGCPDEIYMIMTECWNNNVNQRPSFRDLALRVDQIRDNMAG
T4 sequence (P29597 whole entry): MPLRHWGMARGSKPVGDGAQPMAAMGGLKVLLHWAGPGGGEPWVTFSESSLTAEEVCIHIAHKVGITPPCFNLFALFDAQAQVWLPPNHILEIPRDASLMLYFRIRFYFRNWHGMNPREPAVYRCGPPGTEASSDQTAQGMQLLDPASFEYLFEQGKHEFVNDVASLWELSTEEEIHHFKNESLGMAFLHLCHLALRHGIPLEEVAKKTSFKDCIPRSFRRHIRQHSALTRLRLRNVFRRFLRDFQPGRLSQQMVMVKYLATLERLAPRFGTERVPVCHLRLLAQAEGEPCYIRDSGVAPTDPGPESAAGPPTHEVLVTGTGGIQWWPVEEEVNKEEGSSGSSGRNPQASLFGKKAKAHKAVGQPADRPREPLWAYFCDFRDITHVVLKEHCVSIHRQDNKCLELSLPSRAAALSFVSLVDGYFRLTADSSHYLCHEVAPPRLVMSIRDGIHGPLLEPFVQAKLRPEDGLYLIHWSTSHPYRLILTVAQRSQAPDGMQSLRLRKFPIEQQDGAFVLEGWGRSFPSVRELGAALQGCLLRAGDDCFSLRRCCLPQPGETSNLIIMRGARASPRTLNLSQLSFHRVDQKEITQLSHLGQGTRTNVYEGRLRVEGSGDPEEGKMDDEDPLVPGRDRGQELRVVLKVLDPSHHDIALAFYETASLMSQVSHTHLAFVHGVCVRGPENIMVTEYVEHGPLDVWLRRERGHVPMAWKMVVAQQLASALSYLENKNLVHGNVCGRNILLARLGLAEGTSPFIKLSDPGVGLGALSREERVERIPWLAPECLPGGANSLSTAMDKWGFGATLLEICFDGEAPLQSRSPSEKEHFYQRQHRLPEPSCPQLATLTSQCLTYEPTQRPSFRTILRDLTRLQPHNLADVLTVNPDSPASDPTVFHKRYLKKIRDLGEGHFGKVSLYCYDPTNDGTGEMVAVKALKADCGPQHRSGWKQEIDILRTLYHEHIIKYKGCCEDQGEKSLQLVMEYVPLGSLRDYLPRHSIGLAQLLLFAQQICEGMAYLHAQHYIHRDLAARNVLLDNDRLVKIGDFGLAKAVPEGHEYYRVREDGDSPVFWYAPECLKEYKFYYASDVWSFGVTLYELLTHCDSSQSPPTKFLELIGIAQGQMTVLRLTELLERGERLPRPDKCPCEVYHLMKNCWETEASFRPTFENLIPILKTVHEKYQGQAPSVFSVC
T3 sequence (P23458 whole entry): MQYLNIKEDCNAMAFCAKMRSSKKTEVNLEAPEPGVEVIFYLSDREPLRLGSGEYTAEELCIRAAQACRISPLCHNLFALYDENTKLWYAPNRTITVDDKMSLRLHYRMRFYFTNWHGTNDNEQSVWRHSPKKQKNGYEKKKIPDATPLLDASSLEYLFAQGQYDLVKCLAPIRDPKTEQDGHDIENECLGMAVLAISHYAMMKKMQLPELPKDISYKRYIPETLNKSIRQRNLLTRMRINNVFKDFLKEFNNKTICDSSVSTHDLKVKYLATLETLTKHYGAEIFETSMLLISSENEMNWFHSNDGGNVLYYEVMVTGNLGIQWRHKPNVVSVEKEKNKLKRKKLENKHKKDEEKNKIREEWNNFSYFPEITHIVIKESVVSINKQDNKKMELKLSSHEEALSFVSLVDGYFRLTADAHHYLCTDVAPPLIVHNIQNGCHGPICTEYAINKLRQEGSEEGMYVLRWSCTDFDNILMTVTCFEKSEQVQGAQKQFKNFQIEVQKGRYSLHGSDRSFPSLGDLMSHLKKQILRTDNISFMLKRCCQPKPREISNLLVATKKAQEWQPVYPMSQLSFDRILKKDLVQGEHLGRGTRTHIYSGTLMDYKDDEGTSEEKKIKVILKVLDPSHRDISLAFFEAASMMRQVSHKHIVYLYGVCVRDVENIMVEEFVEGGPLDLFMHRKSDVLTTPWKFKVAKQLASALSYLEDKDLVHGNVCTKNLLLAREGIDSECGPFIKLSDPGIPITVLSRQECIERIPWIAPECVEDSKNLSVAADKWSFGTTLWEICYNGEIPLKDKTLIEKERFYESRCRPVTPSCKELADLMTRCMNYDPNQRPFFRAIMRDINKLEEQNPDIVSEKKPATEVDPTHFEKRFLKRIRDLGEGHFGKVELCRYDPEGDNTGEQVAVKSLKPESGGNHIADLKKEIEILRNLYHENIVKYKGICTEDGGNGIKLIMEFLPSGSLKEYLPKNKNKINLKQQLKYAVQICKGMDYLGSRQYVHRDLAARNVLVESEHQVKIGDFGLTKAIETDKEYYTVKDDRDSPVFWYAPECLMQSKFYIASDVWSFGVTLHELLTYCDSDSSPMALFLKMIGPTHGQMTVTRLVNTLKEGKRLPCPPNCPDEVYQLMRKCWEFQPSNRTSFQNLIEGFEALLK
T5 sequence (P23458 whole entry): as above
T5 sequence (P29597 whole entry): as the sequence (P29597 whole entry) above

`CCNC(=O)c1ccc(Nc2nccc(N3C[C@H]4C[C@@H]3CN4C(=O)CC#N)n2)cc1`: the IC50 is > 4.22 µM in series [1], > 10 µM in [2], 7.18 µM in series [3] and 2.69 µM in series [4]. The same compound yielded a log distribution coefficient (logD) in the series “physchem” of 0.9.

For `CCNC(=O)c1ccc(Nc2nccc(N3CCN(C(=O)CC#N)CC3)n2)cc1`, the IC50 in series [1] was 1.08 µM; in [2], 8.74 µM; in series [3], 3.06 µM; in [4] it was 0.368 µM.

Regarding `CCNC(=O)c1ccc(Nc2nccc(N3C[C@@H]4CC[C@H]3CN4C(=O)C3CC3)n2)cc1`, the logD in “physchem” came to 2.16. Moreover, the IC50 is 0.148 µM in series [5], 2.78 µM in [6], 0.748 µM in series [7] and > 10 µM in series [8].

Consider `CCNC(=O)c1ccc(Nc2nccc(N3C[C@@H]4C[C@H]3CN4C(=O)CC#N)n2)cc1`, for which the IC50 is 0.366 µM in series [1]; 0.774 µM in series [5]; > 9.97 µM in series [6]; 3.71 µM in series [7]; > 10 µM in [8]; > 4.95 µM in series [2]. The IC50 in series [3] came out at 0.358 µM; in [4], 0.023 µM. For the same compound, the logD in “physchem” is 0.9.

As to `CCNC(=O)c1ccc(Nc2nccc(N3C[C@H]4C[C@@H](C3)N4C(=O)C3CC3)n2)cc1`, the logD in the series “physchem” worked out at 2.15.

`CCNC(=O)c1ccc(Nc2nccc(N3C[C@@H]4C[C@H]3CN4C(=O)C3CC3)n2)cc1` came in with a logD in “physchem” of 1.96. In addition, the IC50 in series [5] was 1.74 µM; in [6], > 10 µM; in series [7] it was > 9.52 µM; in [8], > 10 µM.

`CCNC(=O)c1ncc(Nc2ncc(F)c(N3CC4CC[C@H](C3)N4C(=O)C3CC3)n2)cc1C` (single isomer, unassigned): the Papp A→B in [9] was 5.6 to 18.8 ×10⁻⁶ cm/s. The same compound came in with a logD in the series “physchem” of 3.21. Moreover, the IC50 is 12.2 µM in series [10]; 0.048 µM in [5]; 0.692 µM in series [6]; 0.234 µM in [7]; 4.96 µM in [8]; 0.385 µM on JAK1/TYK2 [11]. The fIC50 at JAK1/TYK2 [12] was 91 nM; in series [13], 11 nM.

On to `CCNC(=O)c1ccc(Nc2ncc(F)c(N3CC4CC[C@H](C3)N4C(=O)C3CC3)n2)nc1` (single isomer, unassigned), for which the Papp A→B in series [9] is 5.6 to 18.8 ×10⁻⁶ cm/s. In the series “physchem”, this compound yielded a logD of 2.71. The IC50 in series [5] is 7.2 µM; in series [6], > 10 µM; in [7], > 10 µM; in series [8], > 10 µM.

As to `Cn1cc(Nc2nccc(N3CC4CC[C@H](C3)N4C(=O)[C@H]3CC3(F)F)n2)cn1` (single isomer, unassigned), the logD in the series “physchem” is 1.55.

The compound `CCNC(=O)N1C2CC[C@@H]1CN(c1ccnc(Nc3cnn(C)c3)n1)C2` (single isomer, unassigned) showed a logD in “physchem” of 1.44. Besides, the fIC50 worked out at 60 nM on JAK1/TYK2 [12] and 14 nM in [13].

For the compound `Cn1cc(Nc2nccc(N3CC4CC[C@H](C3)N4C(=O)NCC#N)n2)cn1` (single isomer, unassigned), the Papp A→B in series [9] turned out to be 0.6 ×10⁻⁶ cm/s. The logD in “physchem” came to 0.97. Moreover, the fIC50 was 73 nM on JAK1/TYK2 [12] and 28 nM in series [13].

The compound `Cn1cc(Nc2nccc(N3CC4CC[C@H](C3)N4C(=O)NCC(F)(F)F)n2)cn1` (single isomer, unassigned) registered a logD in “physchem” of 1.72. Besides, the IC50 in series [10] came out at 1.16 µM; in series [5], 0.028 µM; in series [6], 0.146 µM; in series [7], 0.014 µM; in series [8], 6.87 µM; at JAK1/TYK2 [11] it was 0.051 µM. Also, the fIC50 on JAK1/TYK2 [12] amounted to 26 nM; in [13], 15 nM.

On to `O=C(C1CC1)N1C2CC[C@@H]1CN(c1nc(Nc3cnn(CCO)c3)ncc1F)C2` (single isomer, unassigned), for which the apparent permeability from apical to basolateral (Papp A→B) in series [9] lay within 5.6 to 18.8 ×10⁻⁶ cm/s. Moreover, the logD in the series “physchem” came out at 1.78. Further, the fIC50 amounted to 70 nM at JAK1/TYK2 [12] and 10 nM in series [13].

Compound `CCNC(=O)c1ccc(Nc2ncc(F)c(N3CC4CC[C@H](C3)N4C(=O)C3CC3)n2)cc1` (single isomer, unassigned) returned a logD in the series “physchem” of 2.88.

On to `Cn1cc(Nc2nccc(N3CC4CC[C@H](C3)N4C(=O)C3CC3)n2)cn1` (single isomer, unassigned), for which, in the series “physchem”, the logD is 1.52. Besides, the fIC50 stood at 91 nM at JAK1/TYK2 [12] and 11 nM in series [13].

Consider `Cn1cc(Nc2ncc(F)c(N3CC4CC[C@H](C3)N4C(=O)C3CC3)n2)cn1` (single isomer, unassigned), for which, in [9], the apical-to-basolateral permeability (Papp A→B) fell in the range of 5.6 to 18.8 ×10⁻⁶ cm/s. For the same compound, the logD in “physchem” was determined as 2.13. Further, the IC50 in series [10] was 6.28 µM; in series [5] it was 0.053 µM; in [6], 0.488 µM; in series [7], 0.076 µM; in series [8], 2.88 µM; at JAK1/TYK2 [11], 0.144 µM. Further, the fIC50 is 84 nM at JAK1/TYK2 [12] and 8 nM in series [13].

`CCNC(=O)c1ccc(Nc2nccc(N3CC4CC[C@H](C3)N4C(=O)C3CC3)n2)cc1` (single isomer, unassigned) registered a logD in “physchem” of 1.86.

The IC50 is the concentration at which inhibition is half-maximal. A word on the logD: it is lipophilicity at a set pH, counting ionised and neutral species. Higher therefore signals a more lipophilic compound. For orientation: Papp A→B means how fast a substance crosses the layer from the apical side.

The record behind these values is ChEMBL document CHEMBL4411260, “Dual Inhibition of TYK2 and JAK1 for the Treatment of Autoimmune Diseases: Discovery of (( S)-2,2-Difluorocyclopropyl)((1 R,5 S)-3-(2-((1-methyl-1 H-pyrazol-4-yl)amino)pyrimidin-4-yl)-3,8-diazabicyclo[3.2.1]octan-8-yl)methanone (PF-06700841)” (J Med Chem, 2018).
